Reference: patent publication US20250154288A1, “CYTOTOXICITY TARGETING CHIMERAS FOR C-C CHEMOKINE RECEPTOR 2-EXPRESSING CELLS” (GLAXOSMITHKLINE INTELLECTUAL PROPERTY DEVELOPMENT LIMITED, priority 2022, published 2025)

Columns and labels:
[1] = biological target: T1, CHOK1 cells engineered to overexpress human CCR2 (Homo sapiens, UniProt P41597); assay: Antibody Dependent Cellular Cytotoxicity (ADCC) Reporter Assay; assay type: cell-based; details: with anti-cotinine antibody (human IgG1 Fc, S239D/I332E); Jurkat FcγRIIIa NFAT-luciferase reporter cells; average if several runs; read-out: ADCC Reporter Assay pEC50 (converted)
T1 construct: expressed in transfected cells; host or cells: CHOK1
Description: An antibody dependent cellular cytoxocity reporter assay was conducted using the following four assay components: (i) ARM compound of Formula (I) targeting CCR2 (concentrations ranging from 1 pM to 10 μM) (ii) anti-cotinine antibody having a heavy chain sequence of SEQ ID NO: 11 and a light chain sequence of SEQ ID NO: 12 (rabbit variable region with human IgG1 Fc domain containing a DE mutation (S239D/I332E)) (concentrations ranging from 0.01 μg/mL to 200 μg/mL); (iii) target cells: CHOK1 cells engineered to overexpress either human CCR2 (typically 1000-20,000 cells per well) and (iv) reporter cells: Jurkat cells engineered to express FcγRIIIa with the reporter gene luciferase under the control of the NFAT promoter (typically 3000-75,000 cells per well). Reagents were combined in a final volume of 20 μL in a 384-well tissue culture treated plate. All four assay components were incubated together for about 12-18 hours. Thereafter, BioGlo Detection reagent (Promega) was added to the wells to lyse the cells and provide a substrate for the luciferase reporter protein. Luminescence signal was measured on a microplate reader and signal:background was calculated by dividing the signal of a test well by the signal obtained when no heterobivalent compound of Formula (I) was added. EC50 calculations were done using Graphpad Prism Software, specifically a nonlinear regression curve fit (Y=Bottom+(Top−Bottom)/(1+10 ^((Log EC50−X)*HillSlope))).
ARMs compounds of Formula (I) of the invention were tested for ADCC activity in the above assay in or more experimental runs and the results are shown in Table 3 below. Potency of the compounds of Formula (I) of the invention is reported as a pEC50 value. The pEC50 value is the negative log of the EC50 value, wherein the EC50 value is the half maximal effective concentration measured in molar (M). For compounds tested in more than one experimental run, the pEC50 value is reported as an average.

[2] = system: CCR2 expressing cells (CD11b+Ly6c+ Hi) in peripheral blood; assay: In Vivo Depletion Assay (flow cytometry of peripheral blood); parameters: species or system Human CCR2 (hCCR2) knock-in mice; details: hCCR2 knock-in mice; IV 0.1 mpk compound + 10 mpk anti-cotinine antibody (mouse IgG2a Fc); peripheral blood at 48 hr
Description: (§1) Human CCR2 (hCCR2) knock-in mice (057 background) were dosed intravenously with a PBS solution containing a compound of Formula (I) to measure depletion of CCR2 expressing cells in peripheral blood. Peripheral blood from IV dosed mice was also analyzed to determine PK properties of the ARM compounds of Formula (I).
Stock solution preparation: Stock solutions of compounds of Formula (I) were prepared at 20 mg/mL and 100 mg/mL in DMSO for PK/PD and dose tolerability studies respectively. Stock solutions were stored at −20° C. until further usage.
Formulations preparation: On the day of experiment, the stock solution of the compound of Formula (I) was removed from storage at −20° C. and thawed at room temperature. Anti-cotinine antibody having a heavy chain sequence of SEQ ID NO: 13 and a light chain sequence of SEQ ID NO: 14 (rabbit variable region sequence with mouse IgG2a Fc domain), if required was removed from storage at −80° C. and thawed at room temperature. Antibody vials were immediately transferred into wet ice after thawing. Compounds of Formula (I) were further diluted in DMSO as per experimental requirements.
Formulation composition: The formulation composition was Saline: DMSO: PBS. Saline was added based on the quantity required and then stock solution of the compound of Formula (I) prepared in DMSO, followed by addition of antibody in PBS. Formulations were incubated at room temperature for 30 minutes before administration to the mouse. DMSO was used at 1 to 2% (v/v) in the final formulation.
(§2) Administration to Animal: Solution formulation of antibody and compound of Formula (I) was injected (bolus injection) to the restrained mouse in the right/left lateral tail vein. Animals were dosed with 0.1 milligram per kilogram (mpk) of the compound of Formula (I) and 10 mpk of the anti-cotinine antibody.
(§3) Terminal bleeding at end of experiment (48 hr): Approximately 250 μL of blood in K2EDTA tube and approximately 250 μL of blood in SST (serum separation tube) was collected from each mouse through retro-orbital bleeding under deep isoflurane anesthesia. After bleeding, each mouse was sacrificed by cervical dislocation. The blood distribution at termination was determined as follows: • For PK: 50 μL of K2EDTA blood was transferred to another tube for PK • Flow cytometry: Remaining blood (˜200 μL) was used for flow cytometry analysis. • For serum collection: serum separator tubes (BD) were centrifuged at 4° C., 5000 rpm for 15 minutes. Approximately 100 μL serum was separated and stored at −80° C. for further usage. • Blood drug concentration: Samples collected at the various timepoints (0.25 hr, 2 hr, 24 and 48 hr) were analyzed to determine blood drug concentration.
CCR2 depletion in peripheral blood was determined by flow cytometry. Briefly, peripheral blood was collected from all animals at the end of study termination and processed. Blood samples were lysed using 1×RBC Lysis buffer and the resulting cell pellet was washed twice in FACS buffer (HBSS containing 5% FBS). Cells were subjected to Fc blocking using mouse Fc block from Biolegend (Trustain, anti-mouse CD16/32, Cat: 101319) to block non-specific binding followed by surface staining for immune markers (CD45, CD3, CD11b, Ly6C, human CCR2). Surface staining was done for 30 minutes in ice and cells were washed twice to remove unbound antibodies. Cells were stained with 7AAD to determine viability and acquired on BD FACSVerse flow cytometer. Appropriate FMO controls and single-color controls were included in the experiment for gating and compensation respectively.
Percent depletion of CD11b+Ly6c+ Hi cells and CCR2 expression for the different treatment groups was determined. The results are shown below in Table 4 and are reported as percent (%) depletion of CCR2 expressing cells.

[3] = Blood drug concentration analysis (LC-MS/MS) in In Vivo Depletion Assay; details: human CCR2 (hCCR2) knock-in, 057 background, mouse, whole blood, hCCR2 knock-in mice, IV 0.1 mpk compound + 10 mpk anti-cotinine antibody, 48 hours post-dose, read-out: Exposure of Compound of Formula (I) 48 hours post-dose
Description: as §1, §2
Collection of Blood for PK: Blood was collected at time points 0.25 hour, 2 hours, and […] following administration (50 μL/time point) through retro-orbital bleeding under mild isoflurane anesthesia.
as §3
Drug concentration in blood samples was determined by an LC-MS/MS-based bioanalytical method developed at Syngene. Samples were analyzed on Q-Trap, API-5500 LC-MS/MS system coupled with Exion UHPLC system from SCIEX, USA operated in multiple reaction monitoring mode employing electrospray ionization technique in positive polarity. Analyte and internal standard peaks were resolved on Synergi Polar, 75×2.0 mm, 4μ column using mobile phase 10 mM Ammonium acetate in Milli-Q water as phase A and 0.1% Formic acid in acetonitrile as Phase B. Gradient elution was performed with initial composition 95% Phase A at 0.0 min, holding it for 0.2 minutes, ramping to 5% by 1.0 minute, keeping the same for next 0.5 minutes and coming back to 95% by 1.6 minutes. The total run time was 2 minutes.
Working dilutions for calibration curve and quality control standards were prepared by serially diluting 20 mg/mL stock solution with DMSO. Spiked concentrations for calibration curve in the whole blood ranged from 1 ng/mL to 1000 ng/mL. The working solution of internal standard (Verapamil, 25 ng/mL) was prepared in acetonitrile. 10 μL of the study sample and calibration curve, quality control, and blank whole blood samples were aliquoted in 96 deep well plates for processing. 10 μL of Milli-Q water was added to all the samples and briefly vortexed to initiate complete hemolysis. 10 μL of 20 mM dithiothreitol (OTT) was added to all the samples and incubated for 30 minutes at 37° C. The addition of DTT enhanced the recovery of ARM compounds of Formula (I) from the biological matrix. 300 μL of working internal standard solution was added to all samples except total blank and wash samples, where 300 μL of acetonitrile was added. All the samples were vortex mixed for 5 minutes, followed by centrifugation at 4000 rpm for 10 minutes at 4° C. Supernatants were transferred to the loading plate and injected 3 μL to LC-MS/MS system for analysis. The results are shown below in Table 4 and are reported as compound exposure 48 hours post-dose

SMILES | EC50 [1] | % Depletion of CCR2 expressing cells [2] | concentration at 48 h [3]
CO[C@@H]1COCC[C@@H]1N[C@@H]1CC[C@](CCCNC(=O)[C@H]2CC[C@H](NC(=O)CCCO[C@H]3CC[C@@H](OCCNC(=O)[C@H]4CC(=O)N(C)[C@@H]4c4cccnc4)CC3)CC2)(C(=O)N2CCc3ncc(C(F)(F)F)cc3C2)C1 [Example 5, (2S,3S)-N-(2-(((1S,4R)-4-(4-(((1S,4R)-4-((3-((1S,3R)-3-(((3S,4S)-3-Methoxytetrahydro-2H-pyran-4-yl)amino)-1-(3-(trifluoromethyl)-5,6,7,8-tetrahydro-1,6-naphthyridine-6-carbonyl)cyclopentyl)propyl)carbamoyl)cyclohexyl)amino)-4-oxobutoxy)cyclohexyl)oxy)ethyl)-1-methyl-5-oxo-2-(pyridin-3-yl)pyrrolidine-3-carboxamide] | 0.158 nM | 98.41% | 95.4 ng/mL
CO[C@@H]1COCC[C@@H]1N[C@@H]1CC[C@@](C(=O)N2CCc3nc(CCCCNC(=O)[C@H]4CC[C@H](NC(=O)CCCO[C@H]5CC[C@H](OCCNC(=O)[C@H]6CC(=O)N(C)[C@@H]6c6cccnc6)CC5)CC4)c(C(F)(F)F)cc3C2)(C(C)C)C1 [Example 12, (2S,3S)-N-(2-(((1R,4S)-4-(4-(((1r,4R)-4-((4-(6-((1S,3R)-1-Isopropyl-3-(((3S,4S)-3-methoxytetrahydro-2H-pyran-4-yl)amino)cyclopentane-1-carbonyl)-3(trifluoromethyl)-5,6,7,8-tetrahydro-1,6-naphthyridin-2-yl)butyl)carbamoyl)cyclohexyl)amino)-4oxobutoxy)cyclohexyl)oxy)ethyl)-1-methyl-5-oxo-2-(pyridin-3-yl)pyrrolidine-3 carboxamide] | 0.631 nM | 95.4% | 33.3 ng/mL
